Entries after “also recorded” stand apart in the source; their conditions may differ. Where two headings read alike, the source gives them in different places.
Columns and labels:
[1] = target: T1, PSMA (Homo sapiens, UniProt Q04609); assay: PSMA inhibition assay (fluorescence-based, NAAG hydrolysis, Amplex Red); assay type: biochemical; settings: for Ki: lysates of LNCaP cell extracts, 4 μM NAAG, Cheng-Prusoff conversion
T1 construct: endogenous in cells; host or cells: LNCaP cell lysate
Method: The PSMA inhibitory activity of 1, 2 and DKFZ-PSMA-11 and the corresponding natural Ga-labeled analogs Ga-1 and Ga-2 were determined using a fluorescence-based assay according to a previously reported procedure (Banerjee et al. (2011) Angewandte Chemie 50, 9167-70) (Table 1). Briefly, lysates of LNCaP cell extracts (25 μL) were incubated with the inhibitor (12.5 μL) in the presence of 4 μM N-acetylaspartylglutamate (NAAG) (12.5 μL) for 2 h. The amount of the glutamate released by NAAG hydrolysis was measured by incubating with a working solution (50 μL) of the Amplex Red Glutamic Acid Kit (Life Technologies, Grand Island, N.Y.) for 1 h.
Fluorescence was measured with a VICTOR3V multilabel plate reader (Perkin Elmer Inc., Waltham, Mass.) with excitation at 490 nm and emission at 642 nm. Inhibition curves were determined using semi-log plots and IC50 values were determined at the concentration at which enzyme activity was inhibited by 50%. Enzyme inhibitory constants (Ki values) were generated using the Cheng-Prusoff conversion (Cheng et al. (1973) Biochemical pharmacology 22, 3099-108). Assays were performed in triplicate. Data analysis was performed using GraphPad Prism version 4.00 for Windows (GraphPad Software, San Diego, Calif.).

[2] = Hydrophilicity/lipophilicity judged from HPLC retention (RP C8); assay type: physicochemical; settings: based on HPLC retention time
[3] = chelating agent with gallium, cited from earlier work
[4] = system: PSMA+ PC3 PIP and PSMA− PC3 flu tumors; assay: Tissue biodistribution in mice bearing PSMA+ PC3 PIP and PSMA− PC3 flu tumors; settings: mouse, in vivo
[5] = system: PSMA+ PC3 PIP and PSMA− PC3 flu tumors
[6] = 1 h post-injection, mean ± SD, n = 4
[7] = 2 h post-injection, mean ± SD, n = 4
[8] = 3 h post-injection, mean ± SD, n = 4

T1 sequence (Q04609 whole entry): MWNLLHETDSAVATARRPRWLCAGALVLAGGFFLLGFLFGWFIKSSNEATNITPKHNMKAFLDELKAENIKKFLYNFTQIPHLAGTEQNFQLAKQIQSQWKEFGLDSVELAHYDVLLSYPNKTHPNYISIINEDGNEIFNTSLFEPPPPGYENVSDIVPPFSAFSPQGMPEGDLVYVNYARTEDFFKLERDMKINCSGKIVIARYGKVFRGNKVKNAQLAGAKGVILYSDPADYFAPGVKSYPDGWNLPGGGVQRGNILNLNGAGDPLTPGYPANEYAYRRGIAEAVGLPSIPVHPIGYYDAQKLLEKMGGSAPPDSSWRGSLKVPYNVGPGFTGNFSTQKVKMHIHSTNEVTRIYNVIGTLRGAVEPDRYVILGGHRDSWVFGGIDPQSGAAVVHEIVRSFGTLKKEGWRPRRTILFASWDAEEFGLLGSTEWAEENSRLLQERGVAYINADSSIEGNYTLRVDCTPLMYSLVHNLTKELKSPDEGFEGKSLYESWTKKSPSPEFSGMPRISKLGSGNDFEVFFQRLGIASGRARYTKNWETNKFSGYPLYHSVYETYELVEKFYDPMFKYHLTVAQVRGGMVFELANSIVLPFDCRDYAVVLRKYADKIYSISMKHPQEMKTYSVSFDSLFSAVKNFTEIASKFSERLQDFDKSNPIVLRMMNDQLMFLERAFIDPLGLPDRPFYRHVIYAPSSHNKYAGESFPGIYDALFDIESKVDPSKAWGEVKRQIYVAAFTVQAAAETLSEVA

With `O=C(O)CCC(NC(=O)NC(CCCCNC(=O)CCCCCCC(=O)NCCCCC(NC(=O)C(Cc1ccccc1)NC(=O)C(Cc1ccccc1)NC(=O)CN1CCN(CC(=O)O)CCN(CC(=O)O)CCN(CC(=O)O)CC1)C(=O)O)C(=O)O)C(=O)O` (centres unmarked) [Compound 1] the Ki [1] was 0.7 nM.
In the case of `O=C(O)CCC(NC(=O)NC(CCCCNC(=O)CCCCCCC(=O)NC(CCCCNC(=S)Nc1ccc(CC2CN(CC(=O)O)CCN(CC(=O)O)CCN2CC(=O)O)cc1)C(=O)O)C(=O)O)C(=O)O` (centres unmarked) [Compound 2], the Ki [1] is reported as 0.81 nM.
In the case of `O=C(O)CCc1ccc(O)c(CN(CCN(CC(=O)O)Cc2cc(CCC(=O)NCCCCCC(=O)NCCCC[C@H](NC(=O)N[C@@H](CCC(=O)O)C(=O)O)C(=O)O)ccc2O)CC(=O)O)c1` [DKFZ-PSMA-11, Glu-urea-Lys-(Ahx)-HBED-CC, reference compound], the “PSMA-binding affinity relative to Ga-1 and Ga-2” value [1] is reported as “ten-fold higher”, the Ki [1] is reported as 0.03 nM and the “hydrophilicity/lipophilicity rank in the series” value [2] is reported as “least hydrophilic; also recorded: most lipophilic”.
For `O=C(O)CN1CCN(CC(=O)O)CCN(CC(=O)O)CCN(CC(=O)O)CC1` [DOTA, 1,4,7,10-tetraazacyclododecane-1,4,7,10-tetraacetic acid], the stability constant, KML, for 68Ga ([3]; the values are: log stability constant) is given as 21.3.
With `O=C([O-])CN1CCN(CC(=O)[O-])CCN(CC(=O)NC(Cc2ccccc2)C(=O)NC(Cc2ccccc2)C(=O)NC(CCCCNC(=O)CCCCCCC(=O)NCCCCC(NC(=O)NC(CCC(=O)O)C(=O)O)C(=O)O)C(=O)O)CCN(CC(=O)[O-])CC1.[Ga+3]` (centres unmarked) [Ga-1] the Ki [1] was 0.33 nM.
`O=C([O-])CN1CCN(CC(=O)[O-])CC(Cc2ccc(NC(=S)NCCCCC(NC(=O)CCCCCCC(=O)NCCCCC(NC(=O)NC(CCC(=O)O)C(=O)O)C(=O)O)C(=O)O)cc2)N(CC(=O)[O-])CC1.[Ga+3]` (centres unmarked) [Ga-2] gave a Ki [1] of 0.38 nM.
With `O=C([O-])CN(CCN(CC(=O)[O-])Cc1cc(CCC(=O)NCCCCCC(=O)NCCCCC(NC(=O)NC(CCC(=O)O)C(=O)O)C(=O)O)ccc1[O-])Cc1cc(CCC(=O)O)ccc1[O-].[Ga+3]` (centres unmarked) [Ga-DKFZ-PSMA-11] the “hydrophilicity/lipophilicity rank in the series” value [2] was “most hydrophilic”.
For `O=C(O)CN1CCN(CC(=O)O)CCN(CC(=O)O)CC1` [NOTA, 1,4,7-triazacyclononane-1,4,7-trisacetic acid], the “stability constant, KML, for 68Ga” value [3] is listed as 31.1.
For `O=C([O-])CN1CCN(CC(=O)[O-])CC(Cc2ccc(NC(=S)NCCCCC(NC(=O)CCCCCCC(=O)NCCCCC(NC(=O)NC(CCC(=O)O)C(=O)O)C(=O)O)C(=O)O)cc2)N(CC(=O)[O-])CC1.[68Ga+3]` (centres unmarked) [^68Ga-2], the “rate of clearance from tissues, comparison of the three radiotracers” value [4] was “fastest rate of clearance from all tissues”.
For `O=C([O-])CN(CCN(CC(=O)[O-])Cc1cc(CCC(=O)NCCCCCC(=O)NCCCCC(NC(=O)NC(CCC(=O)O)C(=O)O)C(=O)O)ccc1[O-])Cc1cc(CCC(=O)O)ccc1[O-].[68Ga+3]` (centres unmarked) [^68Ga-DKFZ-PSMA-11, reference compound], the “hydrophilicity/lipophilicity rank in the series” value [2] was “most hydrophilic”, the “PSMA+ PC3 PIP-to-PSMA− PC3 flu ratio” value ([5]; 1 h post-injection) was 46.62±7.57 and the “PIP:blood ratio” value [5, 6] was 35.45 ± 13.43. The “PIP:flu (PSMA+ PC3 PIP-to-PSMA− PC3 flu tumor uptake ratio)” value [5, 6] was 46.62 ± 17.57, the “PSMA+ PC3 PIP tumor uptake” value [5, 6] was 25.96 ± 9.69 % ID/g and the “PSMA− PC3 flu tumor uptake” value [5, 6] was 0.57 ± 0.14 % ID/g. The blood uptake [5, 6] was 0.75 ± 0.20 % ID/g, the heart uptake [5, 6] was 0.42 ± 0.16 % ID/g and the kidney uptake [5, 6] was 133.24 ± 21.08 % ID/g. It also gave a liver uptake [5, 6] of 0.75 ± 0.19 % ID/g, a lung uptake [5, 6] of 2.21 ± 0.48 % ID/g and a muscle uptake [5, 6] of 0.32 ± 0.12 % ID/g. It also gave a salivary gland uptake [5, 6] of 1.42 ± 0.33 % ID/g, a small intestine uptake [5, 6] of 0.39 ± 0.09 % ID/g and a spleen uptake [5, 6] of 12.35 ± 3.75 % ID/g. The “PSMA+ PC3 PIP-to-PSMA− PC3 flu ratio” value ([5]; 2 h post-injection) was 57.68±27.10, the “PIP:blood ratio” value [5, 7] was 51.88 ± 10.82 and the “PIP:flu (PSMA+ PC3 PIP-to-PSMA− PC3 flu tumor uptake ratio)” value [5, 7] was 57.68 ± 27.10. The “PIP:kidney ratio” value [5, 7] was 0.24 ± 0.04, the “PSMA+ PC3 PIP tumor uptake” value [5, 7] was 21.08 ± 1.17 % ID/g and the “PSMA− PC3 flu tumor uptake” value [5, 7] was 0.41 ± 0.17 % ID/g. For the same compound, the blood uptake [5, 7] was 0.41 ± 0.06 % ID/g, the heart uptake [5, 7] was 0.28 ± 0.06 % ID/g and the kidney uptake [5, 7] was 88.56 ± 20.09 % ID/g. The liver uptake [5, 7] was 0.33 ± 0.05 % ID/g, the lung uptake [5, 7] was 2.07 ± 0.68 % ID/g and the muscle uptake [5, 7] was 0.19 ± 0.09 % ID/g. It also gave a salivary gland uptake [5, 7] of 1.02 ± 0.22 % ID/g, a small intestine uptake [5, 7] of 0.19 ± 0.07 % ID/g and a spleen uptake [5, 7] of 8.87 ± 1.50 % ID/g. The “PSMA+ PC3 PIP-to-PSMA− PC3 flu ratio” value ([5]; 3 h post-injection) was 110.57±21.27, the “PIP:blood ratio” value [5, 8] was 79.55 ± 9.83 and the “PIP:kidney ratio” value [5, 8] was 0.22 ± 0.04. For the same compound, the “PIP:salivary gland ratio” value [5, 8] was 31.40 ± 4.85, the “PSMA+ PC3 PIP tumor uptake” value [5, 8] was 26.86±5.59 % ID/g and the “PSMA− PC3 flu tumor uptake” value [5, 8] was 0.25 ± 0.07 % ID/g. For the same compound, the blood uptake [5, 8] was 0.34 ± 0.06 % ID/g, the heart uptake [5, 8] was 0.20 ± 0.04 % ID/g and the kidney uptake [5, 8] was 119.54 ± 15.49 % ID/g. For the same compound, the liver uptake [5, 8] was 0.38 ± 0.15 % ID/g, the lung uptake [5, 8] was 1.26 ± 0.20 % ID/g and the muscle uptake [5, 8] was 0.14 ± 0.02 % ID/g. The salivary gland uptake [5, 8] was 0.86 ± 0.12 % ID/g, the small intestine uptake [5, 8] was 0.17 ± 0.06 % ID/g and the spleen uptake [5, 8] was 7.18 ± 2.25 % ID/g. For the same compound, the “spleen uptake, comparison with ^68Ga-1 or ^68Ga-2” value ([5]; all time-points, P<0.04) was “higher spleen uptake”, the “salivary gland uptake, comparison with ^68Ga-1 and ^68Ga-2” value ([5]; up to 3 h after injection, P<0.001) was “significantly higher salivary gland uptake” and the “uptake and retention in normal tissues (kidney, blood, spleen, salivary glands, PSMA-negative PC3 flu tumors), comparison” value ([5]; up to 3 h post-injection) was “highest uptake and retention”.

From patent US10717750B2, “68Ga-labeled NOTA-chelated PSMA-targeted imaging and therapeutic agents” (THE JOHNS HOPKINS UNIVERSITY, priority 2009, dated 2020)
